In data set [1] the test system is Mycobacterium tuberculosis. Nature of the data set: Antitubercular activity against Mycobacterium tuberculosis H37Rv MTCC 200 assessed as growth inhibition by L.J. MIC method. The class given is functional.
Another data set deals with Bacillus subtilis. Nature of the data set: Antimicrobial activity against Bacillus subtilis MTCC 441 assessed as growth inhibition by broth microdilution method. The class given is functional. (Dilution methods test growth across graded concentrations, often in twofold steps.)
A further data set relates to Streptococcus pyogenes. The experiment in a line: Antimicrobial activity against Streptococcus pyogenes MTCC 442 assessed as growth inhibition by broth microdilution method. The class given is functional.
Another data set relates to Staphylococcus aureus. Nature of the data set: Antimicrobial activity against Staphylococcus aureus MTCC 96 assessed as growth inhibition by broth microdilution method. The class given is functional.
The test system of another data set is Klebsiella pneumoniae. The experiment in a line: Antimicrobial activity against Klebsiella pneumoniae MTCC 109 assessed as growth inhibition by broth microdilution method. The class given is functional.
Another data set relates to Escherichia coli. The experiment in a line: Antimicrobial activity against Escherichia coli MTCC 443 assessed as growth inhibition by broth microdilution method. Format: functional.
The subject of the next data set is Candida albicans. The experiment in a line: Antimicrobial activity against Candida albicans MTCC 227 assessed as growth inhibition by broth microdilution method. Format: functional.
The next data set concerns Pseudomonas aeruginosa. The experiment in a line: Antimicrobial activity against Pseudomonas aeruginosa MTCC 1688 assessed as growth inhibition by broth microdilution method. The class given is functional.
The next data set concerns Vero. The experiment in a line: Cytotoxicity against Chlorocebus aethiops (African green monkey) Vero cells assessed as inhibition of cell viability at equal to and greater than MIC for Mycobacterium tuberculosis H37Rv after 72 hr by MTT assay. The class given is cell-based. The settings on record: chlorocebus sabaeus.
A further data set has as its system Aspergillus clavatus. Nature of the data set: Antimicrobial activity against Aspergillus clavatus MTCC 1323 assessed as growth inhibition by broth microdilution method. The class given is functional.
Data set [2] concerns Mycobacterium tuberculosis. Nature of the data set: Antitubercular activity against Mycobacterium tuberculosis H37Rv MTCC 200 assessed as growth inhibition at MIC by L.J. MIC method. Format: functional.
In the next data set the test system is Plasmodium falciparum. The experiment in a line: Antimalarial activity against chloroquine-sensitive Plasmodium falciparum 3D7 assessed as inhibition of complete maturation into schizonts after 40 hr. The class given is functional. The settings on record: 3D7, 40 h.
Data set [3] relates to Mycobacterium tuberculosis. Nature of the data set: Antitubercular activity against Mycobacterium tuberculosis H37Rv MTCC 200 assessed as growth inhibition by BACTEC MGIT method. Format: functional.
The next data set has as its system Aspergillus niger. The experiment in a line: Antimicrobial activity against Aspergillus niger MTCC 282 assessed as growth inhibition by broth microdilution method. The class given is functional.
The test system of data set [4] is Mycobacterium tuberculosis. The experiment in a line: Antitubercular activity against Mycobacterium tuberculosis H37Rv MTCC 200 assessed as growth inhibition at 6.25 ug/ml by BACTEC MGIT method. The class given is functional.

In general, MIC refers to the lowest concentration that inhibits growth of the organism. A word on the MIC99: it is an inhibitory concentration at the 99% level, which refers to growth in some studies and to a panel of isolates in others. Broadly, the inhibition is how much of the control response was suppressed.

In brackets after ≈: the same amount, converted by molar mass. A value given as a limit tells only on which side of the number the result lay.

With `O=C1C(=O)N(CCSC(=S)N2CCN(c3ccc(Cl)c(Cl)c3)CC2)c2ccc(Cl)cc21`, the MIC in data set [1] is 100 mg/L (≈ 194 µM); in the data set with Plasmodium falciparum it was 0.061 mg/L (≈ 0.118 µM); in [3], over 6.25 mg/L. In addition, the MIC99 is 100 mg/L in the data set with Bacillus subtilis; 250 mg/L with Streptococcus pyogenes; 500 mg/L with Staphylococcus aureus; 250 mg/L with Klebsiella pneumoniae; 500 mg/L in the data set with Escherichia coli; over 1000 mg/L with Candida albicans. Besides, the values for the MIC99 in the data set with Pseudomonas aeruginosa, in the data set on Aspergillus clavatus and with Aspergillus niger were 250 mg/L, 500 mg/L and over 1000 mg/L, respectively. Moreover, the Activity result with Vero is “Non-toxic”. Besides, in data set [2], the “inhibition (Growth inhibition)” value worked out at 96%. For the same molecule, the inhibition at 6.25 µg/mL in data set [4] was determined as 98%.
For the molecule `O=C1C(=O)N(CCCSC(=S)N2CCN(c3ccc(Cl)c(Cl)c3)CC2)c2ccccc21`, the figures for the MIC (in [1]; in the data set on Plasmodium falciparum; in data set [3]) were 200 mg/L (≈ 404 µM), 0.089 mg/L (≈ 0.18 µM) and over 6.25 mg/L, respectively. Further, the MIC99 was 100 mg/L with Bacillus subtilis; 500 mg/L in the data set on Streptococcus pyogenes; 500 mg/L with Staphylococcus aureus; 500 mg/L with Klebsiella pneumoniae; 500 mg/L with Escherichia coli; over 1000 mg/L in the data set on Candida albicans. In addition, the MIC99 in the data set on Pseudomonas aeruginosa was 200 mg/L; in the data set on Aspergillus clavatus, over 1000 mg/L; with Aspergillus niger it was 500 mg/L. Moreover, the Activity result with Vero is on record as “Non-toxic”. For the same molecule, in data set [2], the “inhibition (Growth inhibition)” value came to 97%. In data set [4], the inhibition at 6.25 µg/mL was found to be 96%.
As to `S=C(SSC(=S)N1CCN(c2ccc(Cl)c(Cl)c2)CC1)N1CCN(c2ccc(Cl)c(Cl)c2)CC1`, the results for the MIC (in data set [1]; in the data set on Plasmodium falciparum; in [3]) were 6.25 mg/L (≈ 10.2 µM), 0.25 mg/L (≈ 0.408 µM) and 6.25 mg/L (≈ 10.2 µM), respectively. The MIC99 is 100 mg/L in the data set with Bacillus subtilis; 62.5 mg/L with Streptococcus pyogenes; 200 mg/L in the data set with Staphylococcus aureus; 62.5 mg/L in the data set with Klebsiella pneumoniae; 100 mg/L in the data set with Escherichia coli; 200 mg/L in the data set on Candida albicans. Besides, the MIC99 in the data set on Pseudomonas aeruginosa, with Aspergillus clavatus and with Aspergillus niger was 100 mg/L in each case. Further, the Activity entry in the data set on Vero is listed as “Non-toxic”. Moreover, the “inhibition (Growth inhibition)” value in data set [2] is given as 98%. Further, the inhibition at 6.25 µg/mL in [4] was found to be 99%.
Take `O=C1C(=O)N(CCCSC(=S)N2CCN(c3ccc(Cl)c(Cl)c3)CC2)c2ccc(Br)cc21`: the MIC amounted to 100 mg/L (≈ 174 µM) in [1], 0.25 mg/L (≈ 0.436 µM) in the data set with Plasmodium falciparum and 6.25 mg/L (≈ 10.9 µM) in [3]. The MIC99 with Bacillus subtilis worked out at 250 mg/L; in the data set on Streptococcus pyogenes it was 100 mg/L; with Staphylococcus aureus, 200 mg/L; in the data set with Klebsiella pneumoniae, 250 mg/L; in the data set on Escherichia coli, 200 mg/L; with Candida albicans, 250 mg/L. Moreover, the MIC99 with Pseudomonas aeruginosa amounted to 100 mg/L; in the data set with Aspergillus clavatus, 500 mg/L; with Aspergillus niger, 100 mg/L. In addition, in the data set with Vero, the Activity result was “Non-toxic”. Also, the “inhibition (Growth inhibition)” value in [2] came out at 94%. Besides, in [4], the inhibition at 6.25 µg/mL worked out at 99%.
On to `O=C1C(=O)N(CCSC(=S)N2CCN(c3ccc(Cl)c(Cl)c3)CC2)c2ccc(Br)cc21`, for which the MIC in data set [1] stood at 6.15 mg/L (≈ 11 µM); in the data set with Plasmodium falciparum, 0.052 mg/L (≈ 0.093 µM); in data set [3] it was 6.25 mg/L (≈ 11.2 µM). The MIC99 in the data set with Bacillus subtilis came out at 250 mg/L; in the data set with Streptococcus pyogenes, 62.5 mg/L; in the data set on Staphylococcus aureus it was 250 mg/L; in the data set with Klebsiella pneumoniae, 250 mg/L; in the data set with Escherichia coli, 100 mg/L; in the data set on Candida albicans, 200 mg/L. Further, the MIC99 in the data set with Pseudomonas aeruginosa was determined as 62.5 mg/L; in the data set with Aspergillus clavatus, 500 mg/L; with Aspergillus niger it was 200 mg/L. For the same molecule, in the data set on Vero, the Activity result is listed as “Non-toxic”. In data set [2], the “inhibition (Growth inhibition)” value is listed as 99%. In addition, in data set [4], the inhibition at 6.25 µg/mL was 99%.
With `O=C1C(=O)N(CCCSC(=S)N2CCN(c3ccc(Cl)c(Cl)c3)CC2)c2ccc(F)cc21`, the MIC in data set [1] amounted to 6.25 mg/L (≈ 12.2 µM); in the data set on Plasmodium falciparum, 0.092 mg/L (≈ 0.18 µM); in data set [3], 6.25 mg/L (≈ 12.2 µM). The MIC99 amounted to 500 mg/L in the data set on Bacillus subtilis; 250 mg/L with Streptococcus pyogenes; 500 mg/L in the data set with Staphylococcus aureus; 100 mg/L in the data set with Klebsiella pneumoniae; 250 mg/L in the data set on Escherichia coli; 500 mg/L with Candida albicans. Moreover, the MIC99 in the data set on Pseudomonas aeruginosa was determined as 250 mg/L; with Aspergillus clavatus, 250 mg/L; in the data set on Aspergillus niger, 200 mg/L. In addition, the Activity result in the data set with Vero is listed as “Non-toxic”. The “inhibition (Growth inhibition)” value in [2] is reported as 98%. The inhibition at 6.25 µg/mL in [4] amounted to 99%.
For the molecule `O=C1C(=O)N(CCSC(=S)N2CCN(c3ccc(Cl)c(Cl)c3)CC2)c2ccc(F)cc21`, the figures for the MIC (in [1]; in the data set with Plasmodium falciparum; in [3]) were 3.1 mg/L (≈ 6.22 µM), 0.043 mg/L (≈ 0.0863 µM) and 6.25 mg/L (≈ 12.5 µM), respectively. Besides, the MIC99 in the data set with Bacillus subtilis turned out to be 200 mg/L; with Streptococcus pyogenes it was 62.5 mg/L; in the data set on Staphylococcus aureus, 100 mg/L; in the data set with Klebsiella pneumoniae, 62.5 mg/L; with Escherichia coli it was 62.5 mg/L; in the data set with Candida albicans, 100 mg/L. Further, the MIC99 in the data set on Pseudomonas aeruginosa, with Aspergillus clavatus and in the data set on Aspergillus niger was 100 mg/L in each case. In the data set with Vero, the Activity entry is recorded as “Non-toxic”. Further, the “inhibition (Growth inhibition)” value in data set [2] is listed as 99%. For the same molecule, the inhibition at 6.25 µg/mL in data set [4] was determined as 99%.
Regarding `O=C1C(=O)N(CCCSC(=S)N2CCN(c3ccc(Cl)c(Cl)c3)CC2)c2ccc([N+](=O)[O-])cc21`, the MIC in [1] is 100 mg/L (≈ 185 µM); in the data set on Plasmodium falciparum it was 0.5 mg/L (≈ 0.927 µM); in data set [3] it was 6.25 mg/L (≈ 11.6 µM). Besides, the MIC99 was 250 mg/L with Bacillus subtilis; 250 mg/L in the data set on Streptococcus pyogenes; 500 mg/L with Staphylococcus aureus; 100 mg/L with Klebsiella pneumoniae; 100 mg/L with Escherichia coli; 500 mg/L with Candida albicans. Further, the results for the MIC99 in the data set with Pseudomonas aeruginosa, in the data set on Aspergillus clavatus and with Aspergillus niger were 200 mg/L, 200 mg/L and 250 mg/L, respectively. The Activity result in the data set with Vero is on record as “Non-toxic”. Moreover, the “inhibition (Growth inhibition)” value in [2] was 96%. The inhibition at 6.25 µg/mL in data set [4] is 99%.
As for `O=C1C(=O)N(CCSC(=S)N2CCN(c3ccc(Cl)c(Cl)c3)CC2)c2ccc([N+](=O)[O-])cc21`, the MIC in [1] was found to be 6.25 mg/L (≈ 11.9 µM); in the data set on Plasmodium falciparum, 0.072 mg/L (≈ 0.137 µM); in [3] it was 6.25 mg/L (≈ 11.9 µM). In addition, the MIC99 with Bacillus subtilis came to 100 mg/L; in the data set on Streptococcus pyogenes, 100 mg/L; with Staphylococcus aureus, 62.5 mg/L; with Klebsiella pneumoniae, 100 mg/L; with Escherichia coli, 100 mg/L; in the data set on Candida albicans, 100 mg/L. Further, the MIC99 with Pseudomonas aeruginosa was found to be 62.5 mg/L; in the data set with Aspergillus clavatus, 100 mg/L; in the data set with Aspergillus niger, 100 mg/L. Further, the Activity result with Vero was “Non-toxic”. Also, in data set [2], the “inhibition (Growth inhibition)” value is listed as 99%. Also, the inhibition at 6.25 µg/mL in data set [4] is 99%.

The values are drawn from ChEMBL document CHEMBL3044829, “New carbodithioate derivatives: synthesis, characterization, and in vitro antibacterial, antifungal, antitubercular, and antimalarial activity” (Med Chem Res, 2013).
